29 compounds from patent US10183950B2, “Thienopyrimidine inhibitors of atypical protein kinase C” (Cancer Research Technology Limited, priority 2011, dated 2019) can be followed below.

One assay addresses T1, kinase-domain human PKCι (Homo sapiens, UniProt P41743).
T1 construct: Recombinant, kinase-domain human PKCι is expressed and purified in-house; made in house
T1 sequence (P41743 254-522 limits assumed): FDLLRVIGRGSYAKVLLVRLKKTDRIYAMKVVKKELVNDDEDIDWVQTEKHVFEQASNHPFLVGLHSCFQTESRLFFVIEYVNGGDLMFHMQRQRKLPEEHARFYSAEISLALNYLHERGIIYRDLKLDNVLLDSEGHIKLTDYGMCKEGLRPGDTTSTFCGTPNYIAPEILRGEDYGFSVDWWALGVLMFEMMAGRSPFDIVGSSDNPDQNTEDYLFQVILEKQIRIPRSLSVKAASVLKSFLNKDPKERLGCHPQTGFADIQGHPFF
Nature of the assay: PKCι IC50 IMAP fluorescence polarisation assay, kinase-domain enzyme. Type of assay: biochemical. The following applies: kinase domain PKCi at 2 μM ATP; read-out: IC50 in IMAP assay against kinase domain PKCi.
The IC50 is the midpoint of a concentration-inhibition curve. On to `C[C@H](N)CNc1nc(-c2ccncc2)nc2cc(C(C)(C)C)sc12` [compound 307, (S)-N*1*-(6-tert-Butyl-2-pyridin-4-yl-thieno[3,2-d]pyrimidin-4-yl)-propane-1,2-diamine], for which the IC50 lay in the range of 10 to 40 µM.
As for `C[C@@H](N)CNc1nc(-c2ccncc2)nc2cc(C(C)(C)C)sc12` [compound 308, (R)-N*1*-(6-tert-Butyl-2-pyridin-4-yl-thieno[3,2-d]pyrimidin-4-yl)-propane-1,2-diamine], the IC50 lay within 10 to 40 µM.
Still for that read-out and setting: as for `CC(C)(C)c1cc2nc(-c3ccncc3)nc(NCCN)c2s1` [compound 311, N*1*-(6-tert-Butyl-2-pyridin-4-yl-thieno[3,2-d]pyrimidin-4-yl)-ethane-1,2-diamine], the figure is 10 to 40 µM; as for `Cc1csc2c(N[C@@H]3CCNC3)nc(-c3ccncc3)nc12` [compound 312, (7-Methyl-2-pyridin-4-yl-thieno[3,2-d]pyrimidin-4-yl)-(R)-pyrrolidin-3-yl-amine], 1 to 10 µM.
On the same count and under the same terms, the figure for `NCCNc1nc(-c2ccncc2)nc2cc(-c3ccccc3)sc12` [compound 313, N*1*-(6-Phenyl-2-pyridin-4-yl-thieno[3,2-d]pyrimidin-4-yl)-ethane-1,2-diamine] is 10 to 40 µM; for `CC(C)(C)c1ccc(-c2cc3nc(-c4ccncc4)nc(N4CCCNCC4)c3s2)cc1` [compound 356, 6-(4-tert-butyl-phenyl)-4-[1,4]diazepan-1-yl-2-pyridin-4-yl-thieno[3,2-d]pyrimidine] it is 10 to 40 µM.
The same measure, in the same setting: as for `C[C@@H](N)CNc1nc(-c2ccncc2)nc2cc(-c3ccc(C(C)(C)C)cc3)sc12` [compound 358, (R)-N*1*-[6-(4-tert-Butyl-phenyl)-2-pyridin-4-yl-thieno[3,2-d]pyrimidin-4-yl]-propane-1,2-diamine], the figure is 10 to 40 µM; as for `C[C@H](N)CNc1nc(-c2ccncc2)nc2cc(-c3ccc(C(C)(C)C)cc3)sc12` [compound 359, (S)-N*1*-[6-(4-tert-Butyl-phenyl)-2-pyridin-4-yl-thieno[3,2-d]pyrimidin-4-yl]-propane-1,2-diamine], 10 to 40 µM.
`CC(C)(C)c1ccc(-c2cc3nc(-c4ccncc4)nc(NCCN)c3s2)cc1` [compound 360, N*1*-[6-(4-tert-Butyl-phenyl)-2-pyridin-4-yl-thieno[3,2-d]pyrimidin-4-yl]-ethane-1,2-diamine]: the IC50 was 10 to 40 µM.
As for `Cc1csc2c(NC[C@H](C)N)nc(-c3ccncc3)nc12` [compound 361, (S)-N*1*-(7-Methyl-2-pyridin-4-yl-thieno[3,2-d]pyrimidin-4-yl)-propane-1,2-diamine], the IC50 lay in the range of 0.1 to 1 µM.
Turning to `Cc1csc2c(N3CCCNCC3)nc(-c3ccncc3)nc12` [compound 362, 4-[1,4]Diazepan-1-yl-7-methyl-2-pyridin-4-yl-thieno[3,2-d]pyrimidine], the IC50 fell in the range of 0.1 to 1 µM.
With `Cc1csc2c(N3CCNCC3)nc(-c3ccncc3)nc12` [compound 363, 7-Methyl-4-piperazin-1-yl-2-pyridin-4-yl-thieno[3,2-d]pyrimidine], the IC50 was 0.1 to 1 µM.
Same read-out and setting: as for `Cc1csc2c(N[C@H]3CCNC3)nc(-c3ccncc3)nc12` [compound 364, (7-Methyl-2-pyridin-4-yl-thieno[3,2-d]pyrimidin-4-yl)-(S)-pyrrolidin-3-yl-amine], the figure is 1 to 10 µM; as for `Cc1csc2c(N(C)CCN)nc(-c3ccncc3)nc12` [compound 365, N*1*-Methyl-N*1*-(7-methyl-2-pyridin-4-yl-thieno[3,2-d]pyrimidin-4-yl)-ethane-1,2-diamine], 1 to 10 µM; as for `C[C@@H](N)CNc1nc(-c2ccncc2)nc2cc(-c3ccccc3)sc12` [compound 366, (R)-N*1*-(6-Phenyl-2-pyridin-4-yl-thieno[3,2-d]pyrimidin-4-yl)-propane-1,2-diamine], 10 to 40 µM.
Still for that read-out and setting: the figure for `C[C@H](N)CNc1nc(-c2ccncc2)nc2cc(-c3ccccc3)sc12` [compound 367, (S)-N*1*-(6-Phenyl-2-pyridin-4-yl-thieno[3,2-d]pyrimidin-4-yl)-propane-1,2-diamine] is 10 to 40 µM; for `c1ccc(-c2cc3nc(-c4ccncc4)nc(N4CCCNCC4)c3s2)cc1` [compound 368, 4-[1,4]Diazepan-1-yl-6-phenyl-2-pyridin-4-yl-thieno[3,2-d]pyrimidine] it is 1 to 10 µM.
Consider `Cc1csc2c(NC[C@@H](C)N)nc(-c3ccncc3)nc12` [compound 369, (R)-N*1*-(7-Methyl-2-pyridin-4-yl-thieno[3,2-d]pyrimidin-4-yl)-propane-1,2-diamine], for which the IC50 fell in the range of 1 to 10 µM.
For the compound `Cc1csc2c(NCCN)nc(-c3ccncc3)nc12` [compound 370, N*1*-(7-Methyl-2-pyridin-4-yl-thieno[3,2-d]pyrimidin-4-yl)-ethane-1,2-diamine], the IC50 lay within 0.1 to 1 µM.
The same measure, in the same setting: as for `Clc1cccc2sc3c(N4CCCNCC4)nc(-c4ccncc4)nc3c12` [compound 371, 9-Chloro-4-[1,4]diazepan-1-yl-2-pyridin-4-yl-benzo[4,5]thieno[3,2-d]pyrimidine], the figure is 0.1 to 1 µM.
Same read-out and setting: as for `N[C@H](CNc1nc(-c2ccncc2)nc2c1sc1cccc(Cl)c12)Cc1ccccc1` [compound 372, (S)-N*1*-(9-Chloro-2-pyridin-4-yl-benzo[4,5]thieno[3,2-d]pyrimidin-4-yl)-3-phenyl-propane-1,2-diamine], the figure is 0.1 to 1 µM; as for `C[C@H](N)CNc1nc(-c2ccncc2)nc2c1sc1cccc(Cl)c12` [compound 373, (S)-N*1*-(9-Chloro-2-pyridin-4-yl-benzo[4,5]thieno[3,2-d]pyrimidin-4-yl)-propane-1,2-diamine], 0.1 to 1 µM; as for `C[C@@H](N)CNc1nc(-c2ccncc2)nc2c1sc1cccc(Cl)c12` [compound 374, (R)-N*1*-(9-Chloro-2-pyridin-4-yl-benzo[4,5]thieno[3,2-d]pyrimidin-4-yl)-propane-1,2-diamine], 0.1 to 1 µM.
Still for that read-out and setting: the figure for `NCCNc1nc(-c2ccncc2)nc2c1sc1ncccc12` [compound 375, N*1*-(2-Pyridin-4-yl-pyrido[3′,2′:4,5]thieno[3,2-d]pyrimidin-4-yl)-ethane-1,2-diamine] is 1 to 10 µM.

The same assay, now with this note: kinase domain PKCi at 2 μM ATP; read-out: IC50 in IMAP assay against kinase domain PKCi (Activity).
On to `Cc1n[nH]c(C)c1-c1nc(NC[C@H](C)N)c2c3c(sc2n1)CCCC3` [compound 192, (S)-N*1*-[2-(3,5-Dimethyl-1H-pyrazol-4-yl)-5,6,7,8-tetrahydro-benzo[4,5]thieno[2,3-d]pyrimidin-4-yl]-propane-1,2-diamine], for which the IC50 was 1 to 10 µM.
On the same count and under the same terms, as for `Cc1n[nH]c(C)c1-c1nc(NC[C@@H](C)N)c2c3c(sc2n1)CCCC3` [compound 193, (R)-N*1*-[2-(3,5-Dimethyl-1H-pyrazol-4-yl)-5,6,7,8-tetrahydro-benzo[4,5]thieno[2,3-d]pyrimidin-4-yl]-propane-1,2-diamine], the figure is 10 to 40 µM; as for `Cc1n[nH]c(C)c1-c1nc(N[C@@H]2CCNC2)c2c3c(sc2n1)CCCC3` [compound 194, [2-(3,5-Dimethyl-1H-pyrazol-4-yl)-5,6,7,8-tetrahydro-benzo[4,5]thieno[2,3-d]pyrimidin-4-yl]-(R)-pyrrolidin-3-yl-amine], 0.1 to 1 µM.
The same measure, in the same setting: as for `c1ccc(-c2cc3nc(-c4ccncc4)nc(N4CCNCC4)c3s2)cc1` [compound 301, 6-phenyl-4-piperazin-1-yl-2-pyridin-4-yl-thieno[3,2-d]pyrimidine], the figure is 1 to 10 µM.
The same measure, in the same setting: as for `Cc1csc2c(NC[C@@H](N)Cc3ccccc3)nc(-c3ccncc3)nc12` [compound 302], the figure is under 0.1 µM.
